Read-outs that look alike come from different tables or passages of the source. Blank lines part the entries; values can stand above or below the compound they belong to.
Key:
Type in all cases: cell-based
[1] = Anti-proliferation IC50, MRC-5; details: human, MRC-5 cells; Table 1, compounds of formula I; NI = no inhibition up to 500 μM
A549 = experiment: Anti-proliferation IC50, A549; details: Homo sapiens
Hep-G2 = experiment: Anti-proliferation IC50, Hep-G2; details: Homo sapiens, HepG2
VERO = experiment: Anti-proliferation IC50, VERO; details: Chlorocebus sabaeus
MDA-MB-231 = experiment: Anti-proliferation IC50, MDA-MB-231; details: Homo sapiens
MCF-7 = experiment: Anti-proliferation IC50, MCF-7; details: Homo sapiens, MCF7
MRC-5 = experiment: Anti-proliferation IC50, MRC-5; details: Homo sapiens, MRC5; Table 2, compounds of formula II
[2] = Table 1, compounds of formula I, NI = no inhibition up to 500 μM, read-out: A549 (IC50)
[3] = Table 1, compounds of formula I, NI = no inhibition up to 500 μM, read-out: Hep-G2 (IC50)
[4] = Table 1, compounds of formula I, NI = no inhibition up to 500 μM, read-out: VERO (IC50)
[5] = Table 1, compounds of formula I, NI = no inhibition up to 500 μM, read-out: MDA-MB-231 (IC50)
[6] = Table 1, compounds of formula I, NI = no inhibition up to 500 μM, read-out: MCF-7 (IC50)
[7] = Table 2, compounds of formula II, read-out: Anti-proliferation IC50 A549
[8] = Table 2, compounds of formula II, read-out: Anti-proliferation IC50 Hep-G2
[9] = Table 2, compounds of formula II, read-out: Anti-proliferation IC50 VERO
[10] = Anti-proliferation IC50 for the new compounds, read-out: Hep-G2 (IC50 μM)
[11] = Anti-proliferation IC50 for the new compounds, read-out: VERO (IC50 μM)
[12] = Anti-proliferation IC50 for the new compounds, read-out: MDA-MB-231 (IC50 μM)
[13] = Anti-proliferation IC50 for the new compounds, read-out: MCF-7 (IC50 μM)

IC50 (Hep-G2; [10]): 2.9 µM
IC50 (MDA-MB-231; [12]): 2.1 µM
IC50 (MCF-7; [13]): 2.8 µM
Compound: CC[C@H]1OC(=O)[C@H](C)[C@@H](O[C@H]2C[C@@](C)(OC)[C@@H](O)[C@H](C)O2)[C@H](C)[C@@H](O[C@@H]2O[C@H](C)C[C@H](N(C)C(=O)CCCCC(CCSCc3ccccc3)SCc3ccccc3)[C@H]2O)[C@](C)(O)C[C@@H](C)CN(C)[C@H](C)[C@@H](O)[C@]1(C)O (some centres unmarked) [AZM-613]
IC50 (VERO; [11]): 6.5 µM

IC50 (Hep-G2; [10]): 232 µM
IC50 (MDA-MB-231; [12]): 236 µM
IC50 (MCF-7; [13]): 206 µM
Compound: O=C(O)CCCCC(CCSCc1ccccc1)SCc1ccccc1 (centres unmarked) [CIP-613, reference compound]
IC50 (VERO; [11]): 224 µM

IC50 (A549; [7]): 55.9 ± 6.4 µM
IC50 (Hep-G2; [8]): 53.4 ± 3.3 µM
Compound: CC[C@H]1OC(=O)[C@H](C)[C@@H](O[C@H]2C[C@@](C)(OC)[C@@H](O)[C@H](C)O2)[C@H](C)[C@@H](O[C@@H]2O[C@H](C)C[C@H](N(C)CC#Cc3ccc(-n4cc(C)ccc4=O)cc3)[C@H]2O)[C@](C)(O)C[C@@H](C)CN(C)[C@H](C)[C@@H](O)[C@]1(C)O [Compound 20a]
IC50 (MRC-5): 23.3 ± 3.3 µM
IC50 (VERO; [9]): 71.4 ± 6.3 µM

IC50 (A549; [7]): 31.2 ± 4.8 µM
IC50 (Hep-G2; [8]): 24.8 ± 1.7 µM
Compound: CC[C@H]1OC(=O)[C@H](C)[C@@H](O[C@H]2C[C@@](C)(OC)[C@@H](O)[C@H](C)O2)[C@H](C)[C@@H](O[C@@H]2O[C@H](C)C[C@H](N(C)CCC#Cc3ccc(-n4cc(C)ccc4=O)cc3)[C@H]2O)[C@](C)(O)C[C@@H](C)CN(C)[C@H](C)[C@@H](O)[C@]1(C)O [Compound 20b]
IC50 (MRC-5): 19.1 ± 2.6 µM
IC50 (VERO; [9]): 28.5 ± 1.8 µM

IC50 (A549; [7]): 42.7 ± 8.4 µM
IC50 (Hep-G2; [8]): 45.2 ± 7.4 µM
Compound: CC[C@H]1OC(=O)[C@H](C)[C@@H](O[C@H]2C[C@@](C)(OC)[C@@H](O)[C@H](C)O2)[C@H](C)[C@@H](O[C@@H]2O[C@H](C)C[C@H](N(C)CCCC#Cc3ccc(-n4cc(C)ccc4=O)cc3)[C@H]2O)[C@](C)(O)C[C@@H](C)CN(C)[C@H](C)[C@@H](O)[C@]1(C)O [Compound 20c]
IC50 (MRC-5): 41.7 ± 0.1 µM
IC50 (VERO; [9]): 36.4 ± 3.8 µM

IC50 (A549; [7]): 15.5 ± 1.1 µM
IC50 (Hep-G2; [8]): 12.7 ± 1.3 µM
Compound: CC[C@H]1OC(=O)[C@H](C)[C@@H](O[C@H]2C[C@@](C)(OC)[C@@H](O)[C@H](C)O2)[C@H](C)[C@@H](O[C@@H]2O[C@H](C)C[C@H](N(C)CCCCC#Cc3ccc(-n4cc(C)ccc4=O)cc3)[C@H]2O)[C@](C)(O)C[C@@H](C)CN(C)[C@H](C)[C@@H](O)[C@]1(C)O [Compound 20d]
IC50 (MRC-5): 5.5 ± 0.2 µM
IC50 (VERO; [9]): 16.2 ± 3.1 µM

IC50 (A549; [7]): 6.1 ± 0.3 µM
IC50 (Hep-G2; [8]): 2.8 µM
Compound: CC[C@H]1OC(=O)[C@H](C)[C@@H](O[C@H]2C[C@@](C)(OC)[C@@H](O)[C@H](C)O2)[C@H](C)[C@@H](O[C@@H]2O[C@H](C)C[C@H](N(C)CCCCCC#Cc3ccc(-n4cc(C)ccc4=O)cc3)[C@H]2O)[C@](C)(O)C[C@@H](C)CN(C)[C@H](C)[C@@H](O)[C@]1(C)O [Compound 20e]
IC50 (MRC-5): 2.2 ± 0.1 µM
IC50 (VERO; [9]): 4.7 ± 0.3 µM

Further lines, the compound ahead of its results:

Compound: CC[C@H]1OC(=O)[C@@H](C)[C@@H](O[C@@H]2C[C@](C)(OC)[C@H](O)[C@@H](C)O2)[C@@H](C)[C@@H](O[C@H]2O[C@@H](C)C[C@@H](N(C)C)[C@@H]2OC(=O)CCCC[C@H]2CCSS2)[C@](C)(OC)C[C@@H](C)C(=O)[C@H](C)[C@H](O)[C@]1(C)O
IC50 [1]: 44.8 ± 7.1 µM
IC50 (A549; [2]): > 500 µM
IC50 (Hep-G2; [3]): > 500 µM
IC50 (VERO; [4]): > 500 µM
IC50 (MDA-MB-231; [5]): 65 ± 0.9 µM
IC50 (MCF-7; [6]): > 500 µM

Compound: CC[C@H]1OC(=O)[C@@H](C)[C@@H](O)[C@@H](C)[C@@H](O[C@H]2O[C@@H](C)C[C@@H](N(C)C)[C@@H]2OC(=O)CCCC[C@H]2CCSS2)[C@](C)(OC)C[C@@H](C)C(=O)[C@H](C)[C@H](O)[C@]1(C)O
IC50 [1]: 262.6 ± 0.4 µM
IC50 (A549; [2]): > 500 µM
IC50 (Hep-G2; [3]): 222 ± 5.3 µM
IC50 (VERO; [4]): > 500 µM
IC50 (MDA-MB-231; [5]): 414.4 ± 1.7 µM
IC50 (MCF-7; [6]): 477.3 ± 3.4 µM

Compound: CC[C@H]1OC(=O)[C@@H](C)[C@@H](O[C@H]2C[C@@](C)(OC)[C@@H](O)[C@H](C)O2)[C@@H](C)[C@@H](O[C@H]2O[C@@H](C)C[C@@H](N(C)Cc3ccc(-c4cn(CCNC(=O)CCCC[C@H]5CCSS5)nn4)cc3)[C@@H]2O)[C@](C)(OC)C[C@@H](C)C(=O)[C@H](C)[C@H](O)[C@]1(C)O
IC50 [1]: 56.1 ± 1.2 µM
IC50 (A549; [2]): 58.6 ± 0.6 µM
IC50 (Hep-G2; [3]): 57.3 ± 1.2 µM
IC50 (VERO; [4]): 65 ± 12.2 µM
IC50 (MDA-MB-231; [5]): 56.9 ± 1.3 µM
IC50 (MCF-7; [6]): 42.3 ± 4.4 µM

Compound: CC[C@H]1OC(=O)[C@@H](C)[C@@H](O[C@H]2C[C@@](C)(OC)[C@@H](O)[C@H](C)O2)[C@@H](C)[C@@H](O[C@H]2O[C@@H](C)C[C@@H](N(C)Cc3ccc(-c4cn(CCCNC(=O)CCCC[C@H]5CCSS5)nn4)cc3)[C@@H]2O)[C@](C)(OC)C[C@@H](C)C(=O)[C@H](C)[C@H](O)[C@]1(C)O
IC50 [1]: 51.6 ± 5 µM
IC50 (A549; [2]): 56.9 ± 0.8 µM
IC50 (Hep-G2; [3]): 49.2 ± 1.8 µM
IC50 (VERO; [4]): 58.1 ± 2.7 µM
IC50 (MDA-MB-231; [5]): 58.5 ± 3.2 µM
IC50 (MCF-7; [6]): 53.6 ± 0.2 µM

Compound: CC[C@H]1OC(=O)[C@@H](C)[C@@H](O[C@H]2C[C@@](C)(OC)[C@@H](O)[C@H](C)O2)[C@@H](C)[C@@H](O[C@H]2O[C@@H](C)C[C@@H](N(C)C)[C@@H]2OC(=O)/C=C/C(=O)OC)[C@](C)(OC)C[C@@H](C)C(=O)[C@H](C)[C@H](O)[C@]1(C)O
IC50 [1]: 88.4 µM
IC50 (A549; [2]): 278 µM
IC50 (Hep-G2; [3]): 133 µM
IC50 (VERO; [4]): 219 ± 45.8 µM
IC50 (MDA-MB-231; [5]): 140 µM
IC50 (MCF-7; [6]): 128 ± 16.5 µM

Compound: CC[C@@H]1OC(=O)[C@@H](C)[C@H](O)[C@@H](C)[C@H](O[C@@H]2O[C@H](C)C[C@H](N(C)C)[C@H]2OC(=O)CCCC[C@H]2CCSS2)C(C)(O)C[C@H](C)CN(C)[C@@H](C)[C@H](O)[C@@]1(C)O (some centres unmarked)
IC50 (MRC-5): 143 ± 17.1 µM
IC50 (A549; [7]): 282 ± 14.3 µM
IC50 (Hep-G2; [8]): 225 ± 12.8 µM
IC50 (VERO; [9]): 273 ± 26.9 µM
IC50 (MDA-MB-231; Table 2, compounds of formula II, read-out: Anti-proliferation IC50 MDA-MB-231): 400 ± 32.4 µM

Compound: CC[C@H]1OC(=O)[C@H](C)[C@@H](O[C@H]2C[C@@](C)(OC)[C@@H](O)[C@H](C)O2)[C@H](C)[C@@H](O[C@@H]2O[C@H](C)C[C@H](N(C)C)C2OC(=O)CCCCC(CCSCc2ccccc2)SCc2ccccc2)[C@](C)(O)C[C@@H](C)CN(C)[C@H](C)[C@@H](O)[C@]1(C)O (some centres unmarked) [AO-03-032]
IC50 (A549; Anti-proliferation IC50 for the new compounds, read-out: A549 (IC50 μM)): 7.6 µM
IC50 (Hep-G2; [10]): 4.2 µM
IC50 (VERO; [11]): 10.4 µM
IC50 (MDA-MB-231; [12]): 6.4 µM

Compound: CC[C@H]1OC(=O)[C@H](C)[C@@H](O[C@H]2C[C@@](C)(OC)[C@@H](O)[C@H](C)O2)[C@H](C)[C@@H](O[C@@H]2O[C@H](C)C[C@H](N(C)Cc3ccc(-c4cn(CCc5ccc(-n6cc(C)ccc6=O)cc5)nn4)cc3)[C@H]2O)[C@](C)(O)C[C@@H](C)CN(C)[C@H](C)[C@@H](O)[C@]1(C)O [Compound 13c]
IC50 (MRC-5): 13.3 ± 0.9 µM
IC50 (A549; [7]): 15.8 ± 3 µM
IC50 (Hep-G2; [8]): 21.8 ± 0.4 µM
IC50 (VERO; [9]): 22.6 ± 4.9 µM

Compound: CC[C@H]1OC(=O)[C@H](C)[C@@H](O[C@H]2C[C@@](C)(OC)[C@@H](O)[C@H](C)O2)[C@H](C)[C@@H](O[C@@H]2O[C@H](C)C[C@H](N(C)CCCCc3ccc(-n4cc(C)ccc4=O)cc3)[C@H]2O)[C@](C)(O)C[C@@H](C)CN(C)[C@H](C)[C@@H](O)[C@]1(C)O [Compound 15a]
IC50 (MRC-5): 5.9 ± 0.1 µM
IC50 (A549; [7]): 43.2 ± 5.7 µM
IC50 (Hep-G2; [8]): 52.2 ± 1 µM
IC50 (VERO; [9]): 23.9 ± 1.7 µM

Compound: CC[C@H]1OC(=O)[C@H](C)[C@@H](O[C@H]2C[C@@](C)(OC)[C@@H](O)[C@H](C)O2)[C@H](C)[C@@H](O[C@@H]2O[C@H](C)C[C@H](N(C)Cc3cn(CCCCc4ccc(-n5cc(C)ccc5=O)cc4)nn3)[C@H]2O)[C@](C)(O)C[C@@H](C)CN(C)[C@H](C)[C@@H](O)[C@]1(C)O [Compound 15b]
IC50 (MRC-5): 36.1 ± 6.1 µM
IC50 (A549; [7]): 35.2 ± 5.4 µM
IC50 (Hep-G2; [8]): 27.7 ± 3.3 µM
IC50 (VERO; [9]): 53.2 ± 0.1 µM

Compound: CC[C@H]1OC(=O)[C@H](C)[C@@H](O[C@H]2C[C@@](C)(OC)[C@@H](O)[C@H](C)O2)[C@H](C)[C@@H](O[C@@H]2O[C@H](C)C[C@H](N(C)Cc3ccc(-c4cn(CCCCc5ccc(-n6cc(C)ccc6=O)cc5)nn4)cc3)[C@H]2O)[C@](C)(O)C[C@@H](C)CN(C)[C@H](C)[C@@H](O)[C@]1(C)O [Compound 15c]
IC50 (MRC-5): 5.7 ± 0.1 µM
IC50 (A549; [7]): 5 ± 0.2 µM
IC50 (Hep-G2; [8]): 2.6 ± 0.1 µM
IC50 (VERO; [9]): 5.9 ± 0.1 µM

Reference: patent US20240076293A1, “Compositions and Methods for Inhibiting Fibrosis, Inflammation and Cancer” (Georgia Tech Research Corporation, priority 2020, published 2024)
